Here are results for four compounds from BindingDB's records for doi:10.1016/0960-894X(96)00323-X (1996).

A short description of the assay: Inhibition of Phosphodiesterase 5 from human corpus cavernosum.

One may read the IC50 as the concentration at which inhibition is half-maximal. As to `CCCc1nn(C)c2c(=O)[nH]c(-c3cc(S(=O)(=O)N4CCN(C(N)=O)CC4)ccc3OCC)nc12` [4-[4-Ethoxy-3-(1-methyl-7-oxo-3-propyl-6,7-dihydro-1H-pyrazolo[4,3-d]pyrimidin-5-yl)-benzenesulfonyl]-piperazine-1-carboxylic acid amide], the IC50 was 2.1 nM.

On to `CCCc1[nH]nc2c(=O)[nH]c(-c3ccccc3O)nc12` [5-(2-Hydroxy-phenyl)-3-propyl-1,6-dihydro-pyrazolo[4,3-d]pyrimidin-7-one], for which the IC50 was found to be 1000 nM.

For the compound `CCCc1[nH]nc2c(=O)[nH]c(-c3ccccc3)nc12` [5-Phenyl-3-propyl-1,6-dihydro-pyrazolo[4,3-d]pyrimidin-7-one], the IC50 was found to be 4500 nM.

In the case of `CCCc1nn(C)c2c(=O)[nH]c(-c3cc(S(=O)(=O)N4CCN(CCO)CC4)ccc3OCC)nc12` [5-{2-Ethoxy-5-[4-(2-hydroxy-ethyl)-piperazine-1-sulfonyl]-phenyl}-1-methyl-3-propyl-1,6-dihydro-pyrazolo[4,3-d]pyrimidin-7-one], the IC50 is 19 nM.
